The subject of assay [1] is human skin squamous cell A431 xenograft (CDX). In words: Selectivity study in vivo, A431 xenograft (CDX) model. Conditions: Table 5 experiment, AZD9291 5 mg/kg; for Tumor Volume (mm^3) 4 days: day 4, oral once daily: 33, 34, 40, 42, 43 20 mg/kg; for Tumor Volume (mm^3) 11 days: day 11, oral once daily: 33, 34, 40, 42, 43 20 mg/kg; for Tumor Volume (mm^3) 18 days: day 18, oral once daily: 33, 34, 40, 42, 43 20 mg/kg. Also noted: species or system BALB/c nude mice. Here is the method:
In this model, the less inhibitory effect on the tumor, the better the selectivity in vivo.
The selective experiments in vivo were performed on BALB/c nude mice that subcutaneously implanted human skin squamous cell A431 xenograft (CDX).
BALB/c nude mice, female, 6-8 weeks, weighted about 18-20 grams, the mice were kept in a special pathogen-free environment and in a single ventilation cage (5 mice per cage). The bedding and water of all the cages were disinfected before use. All animals were free to obtain standard certified commercial laboratory diets. All mice were purchased from mice of Shanghai BK Laboratory Animal Co., LTD for research. The tumor tissue (20-30 mm^3) was implanted subcutaneously in the […] of each mouse for tumor growth. The experiment was started when the average tumor volume reached about 150-200 mm^3. The test compound was orally administered (compounds 17, 30, 37 and 38 were administered once daily at 20 mg/kg, the compound AZD9291 was administered once daily at 5 mg/kg, the compound CO-1686 was administered twice daily at 50 mg/kg, the compound Erlotinib was administered once daily at 75 mg/kg and the compound Afatinib was administered once daily at 7.5 mg/kg, 21 days of continuous administration. The data were shown in Table 4; compounds 33, 34, 40, 42 and 43 were administered once daily at 20 mg/kg and compound AZD9291 was administered once daily at5 mg/kg, 21 days of continuous administration. The tumor volume was measured twice a week with a two-dimensional caliper and the volume was measured in cubic millimeters and calculated by the following formula: V=V=0.5 a×b2, where a and b were the major and minor diameters of the tumor, respectively.

In assay [2] the test system is A431 cells EGFR WT. Nature of the assay: A431 cell viability assay (Cell Titer-Glo, 6 days). Type of assay: cell-based, human. The conditions noted are these: for IC50: Homo sapiens, A-431, 144 h, A431 cells, 6 days; for A431:NCI-H1975 (ratio): ratio of cell IC50 A431 to NCI-H1975. The procedure: (§1) RPMI1640, fetal bovine serum, penicillin/streptomycin solution were purchased from Life Technology (Madison, Wis.). Cell Titer-Glo luminescent cell viability reagents were purchased from Promega (Madison, Wis.). A431 cell line and NCI-H1975 cell line were purchased from European Collection of Cell Cultures (ECACC). Plate Reader Instrument: Envision (PerkinElmer).
(§2) 384-Well plates, 300 of A431 cells and NCI-H1975 cells were inoculated per well, a volume of which was 45 μL. And the plates were incubated overnight in a CO2 incubator at 37° C. The test compound was diluted 3-fold to obtain 10 dose concentrations, the final concentrations of which were from 10 μM to 0.508 nM, two wells. The middle plates were filled with 49 μL of medium per well. 1 μL of compound in the gradient dilution compound plates was transferred to the middle plates and mixed well. And then 5 μL liquid in the middle plates was taken to the cell plates. The cells were incubated in a CO2 incubator for 6 days. After 6 days, 25 μL of detection reagents was added. And then the mixture was incubated at room temperature for 10 minutes and the plates were read by Envision.
(§3) The reading is converted to the suppression rate by the following formula (%) (Max-Sample)/(Max-Min)*100%. IC50 Data was measured by Four-parameter curve fitting (Model 205 in XLFIT5, IDBS).
In general terms: ATP-based viability assays read luminescence as a measure of living cells.

Assay [3] has as its system NCI-H1975 cells EGFR L858R/T790M. In words: NCI-H1975 cell viability assay (Cell Titer-Glo, 6 days). Type of assay: cell-based. Conditions: Homo sapiens, 144 h. The procedure:
as §1, §2, §3

Assay [4] concerns the target T1, EGFR T790M/L858R (Homo sapiens, UniProt P00533, L858R/T790M).
T1 construct: purchased Life technology (Madison, Wis.)
In words: EGFR T790M/L858R enzyme HTRF inhibition assay. Conditions: 20 μM ATP, read-out: EGFR L858R/T79M IC50. Format: biochemical. The procedure:
(§4) Enzyme: EGFR wild type, EGFR T790M/L858R, EGFR T790M and INSR were purchased from Life technology (Madison, Wis.), EGFR d746-750/T790M was purchased from Carna Biosciences (Japan).
(§5) HTRF Kit was purchased from Cis-Bio International which contained the Eu-labeled TK1 antibody, XL665 and biotin-labeled TK1 polypeptide substrates.
(§6) Detecting instrument: Envision (PerkinElmer).
(§7) The test compound was diluted 3-fold to obtain 10 doses of which the final concentration was from 300 nM to 0.015 nM.
EGFR T790M/L858R Enzyme Reaction Mixture System:
0.04 nM EGFR T790M/L858R, 1 μM biotin-TK1 peptide, 20 μM ATP enzyme buffer, a total of which was 10 μL. The reaction plate was white Proxiplate 384-Plus plate (PerkinElmer) and the mixture was reacted at 23° C. for 60 minutes.
(§8) Reaction Detection: 10 μL of detection reagent containing Antibody 2 nM and XL665 62.5 nM was added, and the reagent was incubated at 23° C. for 60 minutes. The plates were read by Envision.
(§9) The reading is converted to the suppression rate (%) by the following formula […]/(Max-Min)*100%. IC50 Data was measured by four-parameter curve fitting (Model 205 in XLFITS, IDBS).
For orientation: Time-resolved FRET reads energy transfer from a long-lived donor to a nearby acceptor.

Assay [5] deals with NCI-H1975 lung cancer patient-derived xenograft (CDX). Nature of the assay: Pharmacodynamics study in vivo, NCI-H1975 xenograft (CDX) model. Further details: species or system BALB/c nude mice. The conditions noted are these: AZD9291 5 mg/kg; for Tumor Volume (mm^3) 4 days: day 4, oral daily: compound 30 10 mg/kg, 33, 34, 40, 42, 43 20 mg/kg; for Tumor Volume (mm^3) 7 days: day 7, oral daily: compound 30 10 mg/kg, 33, 34, 40, 42, 43 20 mg/kg; for Tumor Volume (mm^3) 11 days: day 11, oral daily: compound 30 10 mg/kg, 33, 34, 40, 42, 43 20 mg/kg; for Tumor Volume (mm^3) 14 days: day 14, oral daily: compound 30 10 mg/kg, 33, 34, 40, 42, 43 20 mg/kg; for Tumor Volume (mm^3) 18 days: day 18, oral daily: compound 30 10 mg/kg, 33, 34, 40, 42, 43 20 mg/kg. Here is the method:
For example, after 21 days of administration, the tumor volume of the representative compounds 30, 33, 34, 40, 42 and 43 decreased from the beginning of about 149 mm^3 to 3-39 mm^3.
The pharmacological experiments in vivo were performed on BALB/c nude mice that subcutaneously implanted NCI-H1975 lung cancer […] xenograft (CDX).
BALB/c nude mice, female, 6-8 weeks, weighted about 18-22 grams, the mice were kept in a special pathogen-free environment, and in a single ventilation cage (5 mice per cage). The bedding and water of all the cages were disinfected before use. All animals were free to obtain standard certified commercial laboratory diets. A total of 100 mice were purchased from Beijing Vital for research. The tumor tissue (20-30 mm^3) was implanted subcutaneously in the […] of each mouse for tumor growth. The experiment was started when the average tumor volume reached about 150-200 mm^3. The test compound was orally administered daily (compound 30 was administered at 10 mg/kg, compound 33, 34, 40, 42 and 43 were administered at 20 mg/kg and compound AZD9291 was administered continuously for 21 days at 5 mg/kg, the data were shown in Table 3). The tumor volume was measured twice a week with a two-dimensional caliper and the volume was measured in cubic millimeters and calculated by the following formula: V=V=0.5 a×b2, where a and b were the major and minor diameters of the tumor, respectively.

The target in assay [6] is T2, EGFR d746-750/T790M (Homo sapiens, UniProt P00533, DEL746-750/T790M).
T2 construct: purchased Carna Biosciences (Japan)
Nature of the assay: EGFR d746-750/T790M enzyme HTRF inhibition assay. Type of assay: biochemical. The conditions noted are these: 40 μM ATP. The procedure:
as §4, §5, §6, §7
EGFR d746-750/T790M Enzyme Reaction Mixture System:
0.025 nM EGFR d746-750/T790M, 1 μM biotin-TK1 peptide, 40 μM ATP enzyme buffer, a total of which was 10 μL. The reaction plate was white Proxiplate 384-Plus plate (PerkinElmer) and the mixture was reacted at 23° C. for 60 minutes.
as §8, §9

In assay [7] the target is T3, EGFR wild type (Homo sapiens, UniProt P00533).
T3 construct: purchased Life technology (Madison, Wis.)
Nature of the assay: Wild-type EGFR enzyme HTRF inhibition assay. Format: biochemical. The conditions noted are these: 25 μM ATP, read-out: EGFR WT IC50. Here is the method: as §4, §5, §6, §7
Wild-Type EGFR Enzyme Reaction Mixture System:
0.05 nM Wild-type EGFR, 1 μM biotin-TK1 peptide, 25 μM ATP enzyme buffer, a total of which was 10 μL. The reaction plate was white Proxiplate 384-Plus plate (PerkinElmer) and the mixture was reacted at 23° C. for 60 minutes.
as §8, §9

T1 sequence (P00533 25-1210 T790M/L858R): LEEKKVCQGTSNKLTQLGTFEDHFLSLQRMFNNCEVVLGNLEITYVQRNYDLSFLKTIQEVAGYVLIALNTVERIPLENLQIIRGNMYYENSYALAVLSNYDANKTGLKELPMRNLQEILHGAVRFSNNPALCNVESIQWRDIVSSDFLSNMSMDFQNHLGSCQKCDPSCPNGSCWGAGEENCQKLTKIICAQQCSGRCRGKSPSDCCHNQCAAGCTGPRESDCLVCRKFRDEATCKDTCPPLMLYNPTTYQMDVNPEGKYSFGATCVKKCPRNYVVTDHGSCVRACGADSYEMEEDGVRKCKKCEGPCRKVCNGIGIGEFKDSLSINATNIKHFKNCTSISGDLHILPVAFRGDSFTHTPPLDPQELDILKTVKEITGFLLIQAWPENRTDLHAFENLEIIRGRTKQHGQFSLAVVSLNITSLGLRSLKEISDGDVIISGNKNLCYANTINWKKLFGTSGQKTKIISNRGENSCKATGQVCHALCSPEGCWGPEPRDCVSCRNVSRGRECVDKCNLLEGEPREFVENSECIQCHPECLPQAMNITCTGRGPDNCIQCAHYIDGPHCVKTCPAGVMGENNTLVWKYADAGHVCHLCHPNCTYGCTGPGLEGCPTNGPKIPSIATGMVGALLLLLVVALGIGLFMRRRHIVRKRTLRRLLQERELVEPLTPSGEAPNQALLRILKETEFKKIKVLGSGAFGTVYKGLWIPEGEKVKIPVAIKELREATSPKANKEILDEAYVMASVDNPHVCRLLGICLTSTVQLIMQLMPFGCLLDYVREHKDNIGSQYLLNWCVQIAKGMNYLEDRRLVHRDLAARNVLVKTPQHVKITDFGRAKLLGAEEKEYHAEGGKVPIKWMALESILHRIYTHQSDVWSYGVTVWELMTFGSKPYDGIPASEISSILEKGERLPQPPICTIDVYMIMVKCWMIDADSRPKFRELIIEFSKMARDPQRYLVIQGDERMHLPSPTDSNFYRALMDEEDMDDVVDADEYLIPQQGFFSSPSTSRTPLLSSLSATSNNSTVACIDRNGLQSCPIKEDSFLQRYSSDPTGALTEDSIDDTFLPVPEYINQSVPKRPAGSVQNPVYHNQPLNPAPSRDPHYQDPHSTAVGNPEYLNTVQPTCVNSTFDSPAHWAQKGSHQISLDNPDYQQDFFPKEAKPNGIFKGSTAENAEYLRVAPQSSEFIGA
T3 sequence (P00533 25-1210): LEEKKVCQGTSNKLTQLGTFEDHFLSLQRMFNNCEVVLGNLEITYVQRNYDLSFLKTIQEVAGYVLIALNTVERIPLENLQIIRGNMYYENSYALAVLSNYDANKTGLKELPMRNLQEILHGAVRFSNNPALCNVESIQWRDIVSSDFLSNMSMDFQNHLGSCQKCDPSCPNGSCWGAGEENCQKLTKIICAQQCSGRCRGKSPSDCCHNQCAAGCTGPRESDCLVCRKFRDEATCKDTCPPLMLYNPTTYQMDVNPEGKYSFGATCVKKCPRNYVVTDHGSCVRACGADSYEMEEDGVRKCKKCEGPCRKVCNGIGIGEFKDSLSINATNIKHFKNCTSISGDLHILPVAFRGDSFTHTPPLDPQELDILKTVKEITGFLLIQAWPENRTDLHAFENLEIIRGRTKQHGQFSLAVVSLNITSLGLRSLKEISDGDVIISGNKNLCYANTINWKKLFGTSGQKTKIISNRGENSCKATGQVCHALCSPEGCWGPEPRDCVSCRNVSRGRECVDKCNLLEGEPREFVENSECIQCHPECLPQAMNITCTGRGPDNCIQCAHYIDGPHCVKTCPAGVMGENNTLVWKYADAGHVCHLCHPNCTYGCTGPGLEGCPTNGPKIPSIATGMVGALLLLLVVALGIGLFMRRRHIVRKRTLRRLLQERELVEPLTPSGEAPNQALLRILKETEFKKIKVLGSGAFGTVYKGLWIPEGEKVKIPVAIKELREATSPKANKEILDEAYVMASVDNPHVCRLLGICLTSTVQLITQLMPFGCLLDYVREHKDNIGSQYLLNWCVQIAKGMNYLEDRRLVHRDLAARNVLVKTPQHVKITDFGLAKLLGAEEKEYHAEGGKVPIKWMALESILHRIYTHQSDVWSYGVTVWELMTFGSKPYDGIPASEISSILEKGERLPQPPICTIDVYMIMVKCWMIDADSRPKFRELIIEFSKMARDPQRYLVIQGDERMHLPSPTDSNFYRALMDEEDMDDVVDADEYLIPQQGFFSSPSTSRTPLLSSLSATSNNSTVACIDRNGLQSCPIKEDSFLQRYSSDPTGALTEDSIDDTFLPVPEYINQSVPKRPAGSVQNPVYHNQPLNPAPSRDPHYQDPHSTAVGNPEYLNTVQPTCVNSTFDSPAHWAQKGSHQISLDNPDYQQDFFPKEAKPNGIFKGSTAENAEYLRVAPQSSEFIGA
T2 sequence (P00533 with tags, fused parts or gaps DEL746-750/T790M limits assumed): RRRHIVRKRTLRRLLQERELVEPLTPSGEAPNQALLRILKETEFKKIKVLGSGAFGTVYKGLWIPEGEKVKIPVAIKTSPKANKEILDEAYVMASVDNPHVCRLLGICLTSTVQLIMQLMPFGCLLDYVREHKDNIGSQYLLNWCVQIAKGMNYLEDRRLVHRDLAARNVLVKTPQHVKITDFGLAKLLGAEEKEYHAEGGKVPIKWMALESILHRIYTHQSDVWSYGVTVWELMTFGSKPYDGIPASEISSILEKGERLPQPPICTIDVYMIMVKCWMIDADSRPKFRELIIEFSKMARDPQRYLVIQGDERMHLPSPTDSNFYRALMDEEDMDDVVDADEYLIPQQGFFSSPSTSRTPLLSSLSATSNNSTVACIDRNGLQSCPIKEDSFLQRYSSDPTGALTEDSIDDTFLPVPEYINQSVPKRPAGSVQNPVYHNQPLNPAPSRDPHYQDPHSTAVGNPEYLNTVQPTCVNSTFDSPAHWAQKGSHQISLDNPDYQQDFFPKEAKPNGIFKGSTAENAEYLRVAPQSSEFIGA

Regarding `C=CC(=O)Nc1cc(Nc2nccc(-c3cn4c5c(cccc35)OC3(CC3)C4)n2)c(OC)cc1N(C)CCN(C)C` [Embodiment 42, N-(5-((4-(3H-Spiro[[1,4]oxazino[2,3,4-hi]indole-2,1′-cyclopropan]-6-yl)pyrimidin-2-yl)amino)-2-((2-(dimethylamino)ethyl)(methyl)amino)-4-methoxyphenyl)acrylamide], in assay [1], the “Tumor Volume (mm^3) 4 days” value was 226 mm^3, the “Tumor Volume (mm^3) 11 days” value is 424 mm^3 and the “Tumor Volume (mm^3) 18 days” value came to 661 mm^3. For the same compound, in assay [2], the IC50 was determined as 846 nM and the “A431:NCI-H1975 (ratio)” value is 4.8. In assay [3], the IC50 came to 177 nM. Besides, the IC50 in assay [4] worked out at 0.2 nM. In assay [5], the “Tumor Volume (mm^3) 4 days” value is reported as 85 mm^3, the “Tumor Volume (mm^3) 7 days” value was found to be 69 mm^3, the “Tumor Volume (mm^3) 11 days” value worked out at 57 mm^3 and the “Tumor Volume (mm^3) 14 days” value turned out to be 47 mm^3. Besides, the “Tumor Volume (mm^3) 18 days” value in assay [5] is reported as 20 mm^3. The IC50 in assay [6] came out at 0.2 nM. The IC50 in assay [7] was found to be 0.8 nM.

Take `C=CC(=O)Nc1cc(Nc2nccc(-c3cn4c5c(cccc35)OC3(CC3)C4)n2)c(OC)cc1N(C)CC(C)(C)N(C)C` [Embodiment 43, N-(5-((4-(3H-Spiro[[1,4]oxazino[2,3,4-hi]indole-2,1′-cyclopropan]-6-yl)pyrimidin-2-yl)amino)-2-((2-(dimethylamino)-2-methylpropyl)(methyl)amino)-4-methoxyphenyl)acrylamide]: in assay [1], the “Tumor Volume (mm^3) 4 days” value was found to be 238 mm^3, the “Tumor Volume (mm^3) 11 days” value came to 516 mm^3 and the “Tumor Volume (mm^3) 18 days” value was 820 mm^3. Further, in assay [2], the IC50 worked out at 548 nM and the “A431:NCI-H1975 (ratio)” value was 2.1. The compound also displayed an IC50 in assay [3] of 264 nM. Also, in assay [5], the “Tumor Volume (mm^3) 4 days” value is 92 mm^3, the “Tumor Volume (mm^3) 7 days” value is 65 mm^3, the “Tumor Volume (mm^3) 11 days” value is 61 mm^3 and the “Tumor Volume (mm^3) 14 days” value is reported as 45 mm^3. Also, in assay [5], the “Tumor Volume (mm^3) 18 days” value was found to be 23 mm^3.

Regarding `C=CC(=O)Nc1cc(Nc2nccc(-c3c4n(c5ccccc35)CCC4)n2)c(OC)cc1N(C)CCCN(C)C` [Embodiment 7, N-(5-((4-(2,3-Dihydro-1H-pyrrolo[1,2-a]indol-9-yl)pyrimidin-2-yl)amino)-2-((3-(dimethylamino)propyl)(methyl)amino)-4-methoxyphenyl)acrylamide], the IC50 in assay [2] stood at 3720 nM; in assay [3], 496 nM; in assay [4], 2.19 nM; in assay [6], 2.59 nM; in assay [7], 33 nM. Also, the “A431:NCI-H1975 (ratio)” value in assay [2] was 7.5.

Consider `C=CC(=O)Nc1cc(Nc2nccc(-c3c4n(c5ccccc35)CCC4)n2)c(OC)cc1N1CCN(C)CC1` [Embodiment 4, 2-(2-Methoxy-4-(N-methyl)piperazine-5-acrylamidoanilino)-4-(3-(1,2,3-dihydropyrrolo[1,2-a]indol))pyrimidine], for which the IC50 in assay [2] came to 4620 nM; in assay [3] it was 434 nM; in assay [4] it was 3.25 nM; in assay [6] it was 2.7 nM; in assay [7], 60 nM. Further, the “A431:NCI-H1975 (ratio)” value in assay [2] is recorded as 10.6.

As to `C=CC(=O)Nc1cc(Nc2nccc(-c3c4n(c5ccccc35)CCC4)n2)c(OC)cc1N1CCC(N(C)C)C1` (stereo not shown) [Embodiment 6, N-(5-((4-(2,3-Dihydro-1H-pyrrolo[1,2-a]indol-9-yl)pyrimidin-2-yl)amino)-2-(3-(dimethylamino)pyrrolidin-1-yl)-4-methoxyphenyl)acrylamide], the IC50 was above 10000 nM in assay [2]; 4330 nM in assay [3]; 3.07 nM in assay [4]; 3.29 nM in assay [6]; 20.3 nM in assay [7]. Further, the “A431:NCI-H1975 (ratio)” value in assay [2] is recorded as above 2.1.

Consider `C=CC(=O)Nc1cc(Nc2nccc(-c3c4n(c5ccc(F)cc35)CCC4)n2)c(OC)cc1N(C)CCN(C)C` [Embodiment 13, N-(2-((2-(Dimethylamino)ethyl)(methyl)amino)-5-((4-(7-fluoro-2,3-dihydro-1H-pyrrolo[1,2-a]indol-9-yl)pyrimidin-2-yl)amino)-4-methoxyphenyl) acrylamide], for which the IC50 in assay [2] stood at 545 nM; in assay [3], 5.4 nM; in assay [4] it was 0.24 nM; in assay [6] it was 0.18 nM; in assay [7] it was 0.65 nM. Besides, the “A431:NCI-H1975 (ratio)” value in assay [2] is recorded as 101.0.

The values are drawn from US10093656B2, “Fused-ring or tricyclic aryl pyrimidine compound used as kinase inhibitor” (NANJING SANHOME PHARMACEUTICAL CO., LTD, priority 2015, dated 2018).
